Assay results: patent publication EP0332946B1, “The dipeptide L-pyroglutamyl-L-cysteine, having a high anti-cataractogenic activity, and pharmaceutical compositions containing the same” (S.I.F.I. Società Industria Farmaceutica Italiana S.p.A., priority 1988, dated 1993)
Read-outs that look alike come from different tables or passages of the source. Non-standard residues stand in square brackets, D forms with d. Residues, ends and D or L forms follow the SMILES beside them. pGlu = O=C1CC[C@@H](C(=O)O)N1

Columns and labels:
[1] = test system: male New-Zealand rabbits; settings: rabbit, in vivo
[2] = test system: Male albino Wistar rats; experiment: Cataract from tryptophan deficiency (in vivo experimental cataract model, slit lamp evaluation); settings: rats on tryptophan-deficient diet, 30 days
Description: Said rats have been fed a synthetic diet devoid of tryptophan for a 30 days period and divided in three groups: the first animal group has been administered PGC subcutaneously at a dosage of 1 mg/kg in buffer solution, the second group has been administered a 10 mg/kg doses, whilst the animals of the third group have been injected only buffer solution.
The conditions of the various eye sections : conjunctiva, cornea, interior chamber, lens and vitreous humor have been evaluated at the slit lamp.
Especially the localisation and the degree of lens opaqueness have been scrutinized and documented by means of photographs.
It was possible to observe opaqueness predominantly at the level at the posterior capsule and there was also evidence of an initial sclerosis of the nucleus. No further alterations either at the level of the anterior segment or of the posterior segment have been observed.

[3] = test system: rat lenses; experiment: Experimental model of in vitro cataract (isolated lenses incubated in high-glucose culture broth); type: cell-based, rats; settings: lenses treated with PGC 1M; 55.5 mM glucose
Description: Male albino Wistar rats having an average weight of 180 g have been used. After decapitation, both eye bulbs have been enucleated and the lenses have been removed from the back. The isolated lenses have been incubated at 37°C during 5 days in culture broth 199 containing 15% of foetal bovine serum (Laboratorio Gebco) and a 55.5 mM concentration of glucose. PGC has been added at a 1M concentration into the culture broth of only some lenses. The observations have been carried out at the 3rd and 5th day with the use of a stereo microscope and a Nikon camera with annular flash.
It can be observed that in the control lenses the opaqueness development begins after only 72 hours of incubation and is complete after 120 hours. In the lenses treated with PGC low levels of opaqueness can not be observed before 120 hours of treatment.

[4] = test system: male New-Zealand rabbits; experiment: Toxicity (systemic tolerability) after intraperitoneal injection; type: in vivo
Description: The systemic tolerability of PGC has been studied also after acute administration by means of intraperitoneal injection.
10 rabbits have received the substance (400 mg/kg) injected intraperitoneally.
24 hours after the administration of the product, the following examination have been carried out on urine and blood: • blood cell (red and white) count • determination of glycemia and acotemia; • evaluation of SGOT and SGPT transaminases

[5] = test system: Female albino Sprague-Dowely rats; experiment: Cataract due to hypergalactosemic diet (in vivo experimental cataract model, slit lamp evaluation); settings: rats on 50% galactose diet, 20 days; PGC 10% in buffer, one drop twice a day into the conjunctive sac
Excerpt: Female albino Sprague-Dowely rats having an average weight of 70 g have been used. Said rats have been fed a diet consisting of 50% galactose and the remaining 50% standard rat food during a 20 days period. The animals have been divided in two groups: the first animal group has been administered PGC (10% in buffer) by instilling one drop twice a day into the conjuctive sac, both sides; the second group, consisting of control animals, has been administered buffer only.
The conditions of the various eye sections : conjunctiva, cornea, interior chamber, lens and vitreous humor have been evaluated at the slit lamp. The examination has been carried out before the beginning of the treatment and then on the 5th, 10th, 15th and 20th day.

In the case of O=C1CC[C@@H](C(=O)N[C@@H](CS)C(=O)O)N1 [PGC, L-pyroglutamyl-L-cysteine] ([pGlu]-Cys-OH), the “BODY WEIGHT INCREASE (KG) ON DAY 0” value [1] is reported as 1.60 ± 0.08 kg, the “BODY WEIGHT INCREASE (KG) ON DAY 20” value [1] is reported as 2.34 ± 0.12 kg and the “changes of the hematological or hematochemical constants or of the urine composition” value [1] is reported as “not shown any changes”. The “growth modification relative to control animals” value [1] was “No growth modification”, the lens opaqueness ([2]; PGC 1 mg/kg subcutaneously) was “perfectly transparent” and the lens opaqueness ([2]; PGC 10 mg/kg subcutaneously) was “perfectly transparent”. For the same molecule, the “time before low levels of opaqueness can be observed” value [3] was no less than 120 h, the “changes of the hematological or hematochemical constants or of the urine composition” value ([4]; PGC 400 mg/kg intraperitoneally, 24 hours after administration, urine and blood examination) was “not shown any changes” and the “growth modification relative to control animals” value ([4]; PGC intraperitoneally) was “No growth modification”. The “BODY WEIGHT INCREASE (KG) ON DAY 0” value ([4]; PGC intraperitoneally (400 mg/kg), day 0 (baseline), average ± SD, n=10) was 1.45 ± 0.05 kg, the “BODY WEIGHT INCREASE (KG) ON DAY 20” value ([4]; PGC intraperitoneally (400 mg/kg), day 20, average ± SD, n=10) was 2.25 ± 0.08 kg and the “effect on the formation of lens opaqueness” value [5] was “protective effect”. For the same molecule, the “percent of opaque lenses as a whole in the treated animals relative to the controls” value [5] was 60%.
